# Measured values from US20260001863A1, “NOVEL PYRIDAZINES” (Boehringer Ingelheim International GmbH, priority 2019, published 2026).
# Biological target: Human ATX (Homo sapiens (Human), UniProt Q13822)
# Test: Assay A: Biochemical ATX Assay
# Conditions: 5 nM recombinant ATX, 18:1 LPC substrate, 2 h at room temperature, formation of 18:1 LPA by RapidFire MS
# Experimental: 5 nM recombinant ATX (Cayman Chemicals) was supplemented to 50 mM Tris buffer (pH 8.0) containing 3 mM KCl, 1 mM CaCl2, 1 mM MgCl2 0.14 mM NaCl, and 0.1% bovine serum albumin. Test compounds were dissolved in DMSO and tested in the range of 0.1 nM to 10 μM. The enzymatic reaction (22.5 μL) was started by addition of 2.5 μL 10 μM 18:1 LPC (Avanti Lipids, Alabaster, AL, USA). After 2-h incubation at room temperature, the reaction was stopped by addition of 20 μL water containing 500 nM 20:4 LPA as internal standard and 100 μL 1-butanol for extracting LPA. Subsequently, the plates were centrifuged at 4000 rpm, 4° C., for 2 min. The resultant upper butanol phase was directly used for injection at a RapidFire system (Agilent).
# The RapidFire autosampler was coupled to a binary pump (Agilent 1290) and a Triple Quad 6500 (ABSciex, Toronto, Canada). […] 1 The MS was operated in negative mode with a source temperature of 550° C., curtain gas=35, gas 1=65, and gas 2=80. The following transitions and MS parameters (DP: declustering potential and CE: collision energy) for the respective LPAs were determined: • 18:1 LPA at 435.2/152.8, DP=−40, CE=−28 and 20:4 LPA at 457.2/152.8, DP=−100, CE=−27).
# The formation of 18:1 LPA was monitored and evaluated as ratio to 20:4 LPA.
row,IC50 [nM],Structure (SMILES)
1,3.4,"CC(=O)N1CC2(C1)CN(c1ccc(CNc3ccc(OCc4ccc(C(F)(F)F)nc4)nn3)cc1)C2 [Example 1.1, 1-(6-(4-(((6-((6-(trifluoromethyl)pyridin-3-yl)methoxy)pyridazin-3-yl)amino)methyl)phenyl)-2,6-diazaspiro[3.3]heptan-2-yl)ethan-1-one]"
2,2.9,CC(=O)N1CC2(C1)CN(c1ccc(CNc3ccc(OCc4ccc(C(F)F)nc4)nn3)cc1)C2 [Example 1.2]
3,1.5,CC(=O)N1CCN(c2ccc(CNc3ccc(OCc4ccc(C(F)F)nc4)nn3)cc2F)CC1 [Example 1.3]
4,3.3,CC(=O)N1CCN(c2ccc(CNc3ccc(OCc4ccc(C(F)F)nc4)nn3)c(F)c2)CC1 [Example 1.4]
5,3.9,CN1CC2(CC1=O)CN(c1ccc(CNc3ccc(OCc4ccc(C(F)F)nc4)nn3)cc1)C2 [Example 1.5]
6,6.5,CC(=O)N1CCC2(CC1)CN(c1ccc(CNc3ccc(OCc4ccc(C(F)F)nc4)nn3)cc1)C2 [Example 1.6]
7,1.6,CC(=O)N1CCN(c2ccc(CNc3ccc(OCc4ccc(C(F)F)nc4)nn3)cc2)CC1(C)C [Example 1.7]
8,2.3,"CC(=O)N(C)C1CCN(c2ccc(CNc3ccc(OCc4ccc(C(F)(F)F)nc4)nn3)cc2)CC1 [Example 2.1, N-methyl-N-[1-(4-{[(6-{[6-(trifluoromethyl)pyridin-3-yl]methoxy}pyridazin-3-yl)amino]methyl}phenyl)piperidin-4-yl]acetamide]"
9,3,CC(=O)N1CCN(c2ccc(CNc3ccc(OCc4ccc(C(F)(F)F)nc4)nn3)cc2)CC1 [Example 2.2]
10,2.2,CC(=O)N1CCN(c2ccc(CNc3ccc(OCc4ccc(C(F)F)nc4)nn3)cn2)CC1 [Example 2.3]
11,1.9,CC(=O)N1CCN(c2ccc(CNc3ccc(OCc4ccc(C(F)F)nc4)nn3)nc2)CC1 [Example 2.4]
12,2.5,CC(=O)N1CCN(c2ccc(CNc3ccc(OCc4ccc(C(F)(F)F)nc4)nn3)cn2)CC1 [Example 2.5]
13,1.8,CC(=O)N1CC2CC1CN2c1ccc(CNc2ccc(OCc3ccc(C(F)F)nc3)nn2)cc1 (centres unmarked) [Example 2.6]
14,1.9,CC(=O)N1CCN(c2ccc(CNc3ccc(OCc4ccc(C(F)F)nc4)nn3)c(C(F)(F)F)c2)CC1 [Example 2.7]
15,2,FC(F)(F)c1ccc(COc2ccc(NCc3ccc(N4CCN(C5COC5)CC4)cc3)nn2)cn1 [Example 2.8]
16,3.7,CC(=O)N1CC2(C1)CN(c1ccc(CNc3ccc(OCc4ccc(C(F)(F)F)nc4)nn3)cc1F)C2 [Example 2.9]

row,IC50 [nM],Structure (SMILES)
1,1.8,FC(F)c1ccc(COc2ccc(NCc3ccc(N4CCN(C5COC5)CC4)cc3)nn2)cn1 [Example 2.10]
2,3.8,CC(=O)N[C@H]1[C@@H]2CN(c3ccc(CNc4ccc(OCc5ccc(C(F)(F)F)nc5)nn4)cc3)C[C@@H]21 [Example 2.11]
3,3.5,CC(=O)N1CCN(c2ccc(CNc3ccc(OCc4cnc(C(F)F)c(F)c4)nn3)cc2)CC1 [Example 2.12]
4,4,CC(=O)N1C[C@@H]2CN(c3ccc(CNc4ccc(OCc5ccc(C(F)(F)F)nc5)nn4)cc3)C[C@@H]2C1 [Example 2.13]
5,4.4,CC(=O)N1C[C@@H]2CN(c3ccc(CNc4ccc(OCc5ccc(C(F)F)nc5)nn4)cc3)C[C@@H]2C1 [Example 2.14]
6,2.2,CC(=O)N1CCN(c2ccc(CNc3ccc(OCc4ccc(C(F)(F)F)nc4)nn3)nc2)CC1 [Example 2.15]
7,10.4,CC(=O)N1CCC2(CC1)CN(c1ccc(CNc3ccc(OCc4ccc(C(F)F)nc4)nn3)nc1)C2 [Example 2.16]
8,5.2,CC(=O)N1CCC2(CC1)CN(c1ccc(CNc3ccc(OCc4ccc(C(F)(F)F)nc4)nn3)cn1)C2 [Example 2.17]
9,9.2,CC(=O)N1CCC2(CC1)CN(c1ccc(CNc3ccc(OCc4ccc(C(F)F)nc4)nn3)cn1)C2 [Example 2.18]
10,2.9,CC(=O)N1CC2CCC1CN2c1ccc(CNc2ccc(OCc3ccc(C(F)(F)F)nc3)nn2)cc1 (centres unmarked) [Example 2.20]
11,2.4,CC(=O)N1CC2(C1)CN(c1ccc(CNc3ccc(OCc4ccc(C(F)(F)F)nc4)nn3)c(F)c1)C2 [Example 2.21]
12,6.2,CC(=O)N1CCC2(CC1)CN(c1ccc(CNc3ccc(OCc4ccc(C(F)(F)F)nc4)nn3)cc1)C2 [Example 2.22]
13,3.9,CC(=O)N1CC2CC1CN2c1ccc(CNc2ccc(OCc3ccc(C(F)(F)F)nc3)nn2)cc1 (centres unmarked) [Example 2.23]
14,8.6,"CC(=O)N1CC[C@@H]2CN(c3ccc(CNc4ccc(OCc5ccc(C(F)(F)F)nc5)nn4)cc3)C[C@@H]2CC1 [Example 4, 1-[(3aR,8aS)-2-(4-{[(6-{[6-(trifluoromethyl)pyridin-3-yl]methoxy}pyridazin-3-yl)amino]methyl}phenyl)-decahydropyrrolo[3,4-d]azepin-6-yl]ethan-1-one]"
15,7,"CC(=O)N1C[C@@H]2[C@H](C1)[C@H]1CN(c3ccc(CNc4ccc(OCc5ccc(C(F)(F)F)nc5)nn4)cc3)C[C@@H]21 [Example 5, 1-((3aR,3bS,6aR,6bS)-5-(4-(((6-((6-(trifluoromethyl)pyridin-3-yl)methoxy)pyridazin-3-yl)amino)methyl)phenyl)octahydrocyclobuta[1,2-c:3,4-c′]dipyrrol-2(1H)-yl)ethan-1-one]"

row,Structure (SMILES),IC50 [nM]
1,CC(=O)N1CC2CCC(C1)N2c1ccc(CNc2ccc(OCc3ccc(C(F)(F)F)nc3)nn2)cc1 [Example 2.19],2.4
2,"CC(=O)N1CCN(c2ccc(CNc3ccc(OCc4ccc(C(F)F)nc4)nn3)cc2)CC1 [Example 3, 1-[4-(4-{[(6-{[6-(Difluoromethyl)pyridin-3-yl]methoxy}pyridazin-3-yl)amino]methyl}-phenyl)piperazin-1-yl]ethan-1-one]",2.9

# Tested on: plasma LPA
# Test: Assay C: In Vivo (plasma LPA reduction after oral dosing)
# Conditions: rats, oral 5 mg/kg, plasma 8 hours post application vs baseline; sum of LPA 16:0, 18:0, 18:1, 18:2, 20:4
# Experimental: The test substance was solubilized in 0.5% natrosol supplemented with 0.015% Tween 80 for oral application to rats at a dose of 5 mg/kg. Blood samples were collected before compound administration and 8 hours post application on ice using EDTA as coagulation agent. Subsequently, plasma was prepared by centrifugation and stored until analysis at −20° C.
# LPAs from plasma samples were extracted by using the procedure described by Scherer et al. (Clinical chemistry 2009, 55, 1218-22). 35 μL of heparinized plasma was mixed with 200 μL 40 mM disodium hydrogen phosphate buffer containing 30 mM citric acid (pH 4) and 1 μM 17:0 LPA (internal standard). Subsequently, 500 μL butanol was added and shaken vigorously for 10 min. Samples were centrifuged afterwards at 4000 rpm, 4° C., for 10 min. 500 μL of the organic upper phase was transferred to a fresh 96-deep-well plate and evaporated with a gentle nitrogen flow of 15 psi for 45 min. The resultant residual was dissolved in 100 μL ethanol prior to LC-MS analysis.
# A Triple Quad 6500 (ABSciex, Toronto, Canada) was equipped with an Agilent 1290 LC system (Agilent, Santa Clara, CA) a CTC autosampler and an Atlantis 50×2.1-mm, 3-μm HILIC LC column (Waters, Elstree, UK). Eluent A contained 0.2% formic acid and 50 mM ammonium formate in water, whereas eluent B consisted of 0.2% formic acid in acetonitrile. […] At 1.8 min, solvent B was set back to 95% and stayed constant for 0.7 min for re-equilibration of the column. The following LPA species were monitored (DP: declustering potential and CE: collision energy): 16:0 LPA at 409.2/152.8, DP=−150, CE=−28; 18:0 LPA at 437.3/152.8, DP=−60, CE=−28; 18:1 LPA at 435.2/152.8, DP=−40, CE=−28; 18:2 LPA at 433.2/152.8, DP=−150, CE=−28; 20:4 LPA at 457.2/152.8, DP=−100, CE=−29 and 17:0 LPA at 423.5/152.8, DP=−100, CE=−36. LPA depletion in percent was calculated based on the baseline LPA levels before test compound application. The sum of LPA refers to the species 16:0; 18:0; 18:1; 18:2 and 20:4
row,Structure (SMILES),LPA reduction at 8 h [%]
1,"CC(=O)N1CC2(C1)CN(c1ccc(CNc3ccc(OCc4ccc(C(F)(F)F)nc4)nn3)cc1)C2 [Example 1.1, 1-(6-(4-(((6-((6-(trifluoromethyl)pyridin-3-yl)methoxy)pyridazin-3-yl)amino)methyl)phenyl)-2,6-diazaspiro[3.3]heptan-2-yl)ethan-1-one]",96.5
2,CC(=O)N1CC2(C1)CN(c1ccc(CNc3ccc(OCc4ccc(C(F)F)nc4)nn3)cc1)C2 [Example 1.2],96.7
3,"CCc1nc2c(C)cc(N3CCN(CC(=O)N4CC(O)C4)CC3)cn2c1N(C)c1nc(-c2ccc(F)cc2)c(C#N)s1 [Example 2 in WO2014/139882, reference compound]",58.1
4,CC(=O)N1CCN(c2ccc(CNc3ccc(OCc4ccc(C(F)(F)F)nc4)nn3)cc2)CC1 [Example 2.2],94.1
5,CC(=O)N1CCN(c2ccc(CNc3ccc(OCc4ccc(C(F)(F)F)nc4)nn3)cn2)CC1 [Example 2.5],95.9
6,CC(=O)N1CCN(c2ccc(CNc3ccc(OCc4cnc(C(F)F)c(F)c4)nn3)cc2)CC1 [Example 2.12],94.6
7,"CC(=O)N1CCN(c2ccc(CNc3ccc(OCc4ccc(C(F)F)nc4)nn3)cc2)CC1 [Example 3, 1-[4-(4-{[(6-{[6-(Difluoromethyl)pyridin-3-yl]methoxy}pyridazin-3-yl)amino]methyl}-phenyl)piperazin-1-yl]ethan-1-one]",99.9
8,O=C(NC[C@@H]1[C@H]2CN(C(=O)OCc3cc(C(F)(F)F)cc(C(F)(F)F)c3)C[C@@H]12)c1ccc2[nH]nnc2c1 [reference compound],40.7
